Measured values from patent US20220233503A1, “METHODS OF TREATING SEPSIS WITH SYNAPTIC VESICLE 2A AND/OR 2B BINDING CHEMICAL ENTITIES” (INSTITUT PASTEUR, priority 2016, published 2022).

Test system: microglial cells
Experiment: Morphological analysis of microglial cells (Iba-1 staining) after sepsis
Format: in vivo, mice
Description: Immunohistochemistry: Mice were perfused through left ventricule with paraformaldehyde 4% and the collected brains with small forceps. Brain were fixed overnight with PFA 4% and then cut in 100 μm sagittal slices with a vibratome VT1200S (Leica, Germany). Ionized calcium binding adaptor type 1 immunohistochemistry. Brain sections were washed with PBS and aspecific binding sites were saturated with a bovine serum albumine 3% in PBS solution for 4 hours. Then primary antibody (Rabbit, Wako, 40 ng/μl) was applied for 24 hours at 4° C. under constant agitation. Cyanine 3 secondary antibody (Donkey anti-Rabbit) and Hoechst 33342 (1/4000) was then applied overnight at 4° C. with constant agitation.
Imaging of samples was realized in a medium throughput spinning disk confocal microscope (CV1000) on 5×5 mozaics reconstructed with an overlap of 50% to avoid signal intensity lowering on the edge of tiles. Stitching was realized using a homemade macro with the Grid/collection plugin for Fiji channel by channel and then manually realligned if necessary. Automated analysis of microglial cell was realized on Iba1 staining. Automatic local contrast thresholding using Phanshalkar algorithm with a radius of 2 μm was performed for microglia channel, and with a radius of 12 μm for nuclei channel. Microglial cells were identified using a fixed empirical threshold for percentage of perinuclear area stained by Iba-1 using thresholded image. Only individual microglial cells obtained after segmentation with a tridimensionnal watershed algorithm were furthered considered for analysis. Morphometric study of microglial cells were performed using mcib3d plugin for FIJI. Concentric envelopes were computed starting 1 μm after nuclear envelope to analyze the number of microglial process crossing this sphere and reproduce a conformational tridimensional analysis on microglial cells.
Individual and summarized data were then analyzed in R statistics. Area under the curve of number of microglial processes. When covariant variables were identified, the most relevant was considered.
FIG. 3 (G, H, I). […]

## CC[C@@H](C(N)=O)N1CCCC1=O (single isomer, unassigned) [levetiracetam]
4 main components of 107 morphological criteria, septic mice
  principal components of microglial morphology: different
6 hours after sepsis, CeA and B1A
  microglial cell morphological changes: decreased
15 days after sepsis
  number of microglial cell processes: increased dramatically
